The text below walks through data of a melting point compilation (Tetko et al.; mined from patent text by program, amines drawn as free bases though some values may be those of a salt).

Molecules are shown by their SMILES.

In turn, `COc1cc(OC)c2c(c1)S(=O)(=O)N(CCl)C2=O` registered a melting point of 185 to 187 °C.
With `O=c1[nH]c(-c2ccccc2)nc(-c2ccncc2)c1Br` the figure was above 300 °C; with `Nc1nc2cc3nc(NC(=O)CCl)sc3cc2s1`, 300 °C.
With `NCC(c1ccccc1)C(CN)c1ccccc1` (stereo not given) the figure was 144 to 145 °C; with `COc1c(C(O)CNC(C)(C)Cc2c(C)cc(C)cc2C)ccc(O)c1O` (stereo not given), 98 to 105 °C.
With `CC(C)(C)OC(=O)CC(NC(=O)CCNC(=O)Cc1ccc(C#N)cc1)C(=O)NC(Cc1ccccc1)C(=O)OC(C)(C)C` (stereo not given) the figure was 93 to 94 °C; with `Cc1sc(C(=O)NCc2ccc3c(c2)OCO3)cc1NC(=O)NCc1ccccc1`, 194 to 195 °C; with `O=c1c(Cn2cncn2)cc2cc(Br)ccc2n1-c1ccccc1`, 237 to 240 °C.
`Cc1ccc(-c2nc(O)c(C)s2)cc1`: the melting point lay in the range of 172 to 174 °C.
As for `Cc1noc(C)c1S(=O)(=O)n1c(Br)nc(Br)c1Br`, the figure is 165 to 170 °C.
As for `Cc1nc[nH]c1C(=O)OC(C)C`, the figure is 188 to 190 °C; as for `COc1ccc(C(CSc2ccccc2N)C(=O)O)cc1OC` (stereo not given), 162 °C; as for `COc1ccc(-c2cc(F)cc3c2NC(CN)CO3)c(Cl)c1` (stereo not given), 84 °C.
As to `CN1CCN(C(=O)Nc2ccccc2C=Cc2cc(C(C)(C)C)c(O)c(C(C)(C)C)c2)CC1`, the melting point was in the range of 192 to 194 °C.
As for `c1ccc(Oc2ccc(N3CCNCC3)nn2)cc1`, the figure is 96 to 97 °C; as for `O=C(OCC(=O)N1CCCCC1)c1ccc(O)cc1`, 160 to 164 °C; as for `O=C(C[C@H](NC(=O)C(F)(F)F)C(=O)O)c1ccc(F)cc1F`, 82.4 to 84 °C.
As for `COc1cc(C2C3=C(COC3=O)Nc3ccc4cc(C)[nH]c4c32)ccc1F` (stereo not given), the figure is 198 to 199 °C; as for `CC(c1ccc(S(C)(=O)=O)cn1)C(O)(Cn1cncn1)c1ccc(F)cc1F` (stereo not given), 176 to 177 °C.
Turning to `Cc1cc(C)nc(OC(C(=O)O)C(C)(C)C)n1` (stereo not given), the melting point was in the range of 167 to 169 °C.
As for `CCOC(=O)/C=C/c1ccc(OCCOC)cc1NC(=O)c1ccc(Cl)cc1Cl`, the figure is 170 °C; as for `O=C(c1ccc(Cc2c(Cl)cc(NN=Cc3ccccc3)cc2Cl)cc1)c1cnc(Cl)c(Cl)c1`, 173 to 175 °C.
In turn, `CC(=O)SCC(CC(C)C)C(=O)O` (stereo not given) registered a melting point of 42 to 47 °C.
On to `N=C(NC(=O)OCc1ccccc1)N(C(=O)OCc1ccccc1)C1CCC(CCN2CCN(c3ccccc3)CC2)CC1` (stereo not given), for which the melting point is 136 to 137 °C.
Regarding `C#Cc1ccc(C#C)cc1`, the melting point was in the range of 91 to 92 °C.
`CCOC(=O)C(=O)Nc1ccccc1Cn1cc(C(=O)OC)c2ccccc21` yielded a melting point of 174 to 177 °C.
As for `CCCCc1nn2c(-c3ccccc3)c(C)nc2n1Cc1ccc(-c2ccccc2-c2nnn[nH]2)cc1`, the melting point is above 108 °C.
Regarding `O=C(CCc1ccccc1)N[C@H](Cc1ccc(C(F)(F)F)cc1)[C@@H](O)c1cccc(F)c1` (racemic), the melting point lay within 151 to 152 °C.
With `COc1cc(N)ccc1NNC=O` the figure was 113 to 116 °C; with `O=c1[nH][nH]c(C(F)(F)F)c1Cc1ccc(Cl)cc1`, 151 to 152 °C; with `CS(=O)(=O)c1ccc(-c2cc(=O)n(C3CCCC3)nc2-c2ccc(F)cc2)cc1`, 191 to 192 °C.
With `CSc1cc2c(cc1C(F)(F)F)N(C(=O)Nc1ccc(C(=O)N(C)c3ccncc3)cc1)CC2` the figure was 230 to 232 °C; with `O=CC1=Cc2cc(OCc3ccccc3)ccc2OC1`, 112 to 114 °C.
With `CCN(CC)c1nc2ccccc2n2cnnc12` the figure was 117 to 119 °C; with `CN1C(=O)NC(=O)C1=Cc1cc(OCCCC(=O)N(C)C2CCCCC2)ccc1[N+](=O)[O-]`, 149 to 154 °C; with `CC(C)(SCC(N)=O)c1ccc2c(c1)OCO2`, 70 to 71.5 °C.
As to `CCCCCCCCS(=O)(=O)CCCC(=O)OO`, the melting point was 113 to 115 °C.
With `Cc1ccc(C=CC(=O)N(C)O)cc1` the figure was 142 to 144 °C; with `CC(=O)OCC1OC(n2cc(C(Cl)=CI)c(=O)[nH]c2=O)CC1OC(C)=O` (stereo not given), 81 to 83 °C.
With `CC(C)OC(=O)C1CCCN1S(=O)(=O)c1ccc(N2CCC(NCC(O)COc3cccc4[nH]c(=O)[nH]c34)CC2)cc1` (stereo not given) the figure was 74 to 83 °C; with `O=C(c1cc2ccc(O)cc2[nH]1)N1CCC(Cc2ccc(F)cc2)CC1`, 180 to 182 °C; with `O=C(Cc1ccc(O)cc1)c1c(O)cc(O)cc1O`, 259 °C.
With `Cc1c(NC(=O)c2ccc(OC[C@@H]3CCCO3)cc2)ccc2cc(CNCC(C)(C)C)n(C)c12` the figure was 201 °C; with `CCCCCCCCCCCCCCCCOC(=O)c1ccc(-c2nnn[nH]2)nc1`, 139 to 140 °C; with `O=C(O)Cc1nc(C(=O)c2ccccc2)no1`, 143 to 144 °C.
In turn, `CCC(C)Cc1nc(-c2cc[nH]n2)nc(OC)c1-c1c(F)cc(F)cc1F` (stereo not given) yielded a melting point of 124 °C.
As for `COc1cccc2c1C1=C(CC2)NC(=O)CC1`, the figure is 190 °C; as for `CCCC1=C(C(=O)O)C(CC)n2ncc(C(=O)OCC)c2N1` (stereo not given), 160 to 161 °C.
As for `O=c1ccn(-c2cccc(F)c2)nc1-c1ccnn1-c1ccccc1`, the melting point was in the range of 170 to 171 °C.
As for `O=c1ccc2c(n1CCc1ccccc1)CCCC2NCCc1ccc(Cl)c(Cl)c1` (stereo not given), the figure is 120 to 122 °C.
With `Cc1cc(CCCOc2c(C)cc(N3COC(CO)=N3)cc2C)on1` the figure was 116 to 117 °C; with `CCOC(=O)c1ccc(-c2ccc(C#N)cc2)cc1`, 114 to 115 °C; with `CCCCCC(C)C(C)c1cc(O)c2c3c(c(=O)oc2c1)CSC3` (stereo not given), 165 to 166 °C.
In turn, `CCC=C(C)C(O)C(CC)CC` (stereo not given) returned a melting point of 92 to 93 °C.
`COCCNc1cccc(C(N)=O)c1` gave a melting point of 89 to 91 °C.
As for `Oc1ccc(CCNC[C@H](O)COc2ccccc2)cc1`, the figure is 118 to 119 °C; as for `CCCc1nc2c(N)nc(C)c(C)c2n1Cc1cc(-c2ccc(F)cc2)no1`, 227 to 229 °C; as for `CC(=O)NC[C@H]1CN(c2ccc(C(=O)c3cnc4c([N+](=O)[O-])cccn34)cc2)C(=O)O1`, 229 to 230 °C.
As for `CNC(=S)c1ccncc1C1c2ccccc2CC1(C)C` (stereo not given), the figure is 187 to 189 °C; as for `CC(C)n1nc(-c2sc(NC(=O)c3ccccc3C(F)(F)F)nc2-c2ccccc2)ccc1=O`, 219 to 220 °C.
With `CCSc1cn(C)cc(-c2cccc(C(F)(F)F)c2)c1=O` the figure was 84 to 85 °C.
`CCC1OCCn2c1nc(C(=O)NCc1ccc(F)cc1-n1ncnc1C)c(OCc1ccccc1)c2=O` (stereo not given) gave a melting point of 163 °C.
With `CCCc1nnc(/C=C/c2cn(-c3ccccc3)nc2OCc2ccc(OCc3nc(-c4ccco4)oc3C)c(OC)c2)o1` the figure was 165 to 166 °C; with `O=C(Nc1ccccc1)Nc1onc2c1CCC2`, 202 °C; with `O=C(CCl)Nc1csc(Br)n1`, 146 to 148 °C.
As for `COc1ccc(C=Cc2cc(I)c(OC)c(OC)c2)cc1O`, the figure is 92 to 94 °C; as for `COc1ccc(CC(=O)c2ccc(OCc3ccccc3)cc2O)cc1`, 97 to 98 °C; as for `Cc1cccc(NC(=O)NCC(=O)N2[C@@H](C(=O)OC(C)(C)C)C[C@@H](C(=O)N(C)C)[C@H]2c2ccccc2)c1` (racemic), 199 °C.
As for `CC12CCC3C(CCC4CC=CCC43C)C1CC=C2I` (stereo not given), the figure is 71 to 72 °C.
On to `CCC(Oc1cncc(Br)c1)C(=O)O` (stereo not given), for which the melting point lay within 100 to 102 °C.
The compound `CCOC(=O)Cn1cc(Cc2nc3c(F)c(F)cc(F)c3s2)c2ccc(CC)nc21` gave a melting point of 114 to 115 °C.
Compound `Cc1cccc(C2CCCN2S(=O)(=O)c2ccc(Cl)cc2)c1` (racemic) gave a melting point of 78 °C.
Take `CS(=O)(=O)c1ccc(-c2c(-c3ccc(F)cc3)c(OCc3c(F)cccc3Cl)nn2Cc2c(F)cccc2Cl)cc1`: the melting point was in the range of 195 to 196 °C.
With `O=C(O)c1[nH]c2cc(Cl)cc(Cl)c2c1C=C1NC(=O)N(c2ccccc2)C1=O` the figure was above 250 °C; with `CCC(C(O)c1ccc(Cl)cc1)n1ncn(-c2ccc(N3CCN(C(=O)c4ccccn4)CC3)nc2)c1=O` (stereo not given), 210 °C.
`Cc1ccc(CCCCOCCCCCCNCC(O)c2ccc3c(n2)COC(c2ccccc2)O3)cc1` (stereo not given) gave a melting point of 74 °C.
As for `CN(C)CCCC1CCN(C=Nc2ccc3c(c2)C(=O)c2ccc(N=CN4CCC(CCCN(C)C)CC4)cc2C3=O)CC1`, the figure is 171 to 174 °C; as for `CC1=C(c2ccc(OCC(=O)O)c(Cl)c2Cl)CC(C)CC1=O` (stereo not given), 170 to 173 °C.
For the compound `CC(C)(C)OC(=O)NC[C@H]1CN(c2ccc3c(c2)CC(C(C)(C)C)N3)C(=O)O1` (stereo not given in full), the melting point was in the range of 153 to 160 °C.
With `Cc1ccc(C(C)(C)C)c(O)c1-c1nc2cc(S(=O)(=O)C(F)(F)F)ccc2[nH]1` the figure was 218 to 220 °C; with `CCCCCCCCCCCCCCOc1ccc(C(=O)O)s1`, 95 to 96 °C.
As for `COC(=O)c1cccc(C(=O)N(C)C)n1`, the figure is 90 to 92 °C.
As for `CCCc1c(C=O)ncn1S(=O)(=O)N(C)C`, the figure is 57 to 58 °C; as for `CCCc1nc2c(N)nc3ccccc3c2n1CCCCCS(C)(=O)=O`, 179 to 181 °C.
For the compound `CCCCCCOc1nc(O)ns1`, the melting point was found to be 61 °C.
With `Cc1ccc(Sc2ncnc3c(C)csc23)cc1` the figure was 103 to 107 °C; with `OCCCCOc1cnc(-c2ccccc2)c(-c2ccccc2)n1`, 93 to 95 °C.
`CN(C(=O)c1nn(-c2ccc(Cl)cc2Cl)c(-c2ccc(Cl)cc2)c1O)N1CCCCC1` displayed a melting point of 118 °C.
As for `Cn1c(=O)n(C)c2cc(C(=O)CSCCC(=O)O)c(Cl)cc21`, the melting point lay in the range of 148 to 150 °C.
With `c1ccc(N(c2ccccc2)c2ccc(-c3ccc(-c4ccnc(CNc5ccc6ccccc6c5)n4)cc3)cc2)cc1` the figure was 204 to 205 °C.
